Source: ChEMBL document CHEMBL6078656, “Pattern-Based Genome Mining Guides Discovery of the Antibiotic Indanopyrrole A from a Marine Streptomycete” (J Nat Prod, 2024)
≈ marks a conversion by molar mass, not a printed value.

Assays:
Haemophilus influenzae [1] = assay: Antibacterial activity against Haemophilus influenzae 1 assessed as inhibition of bacterial growth incubated for 24 hrs by CLSI based broth microdilution method; format: functional
Escherichia coli [2] = assay: Antibacterial activity against Escherichia coli K1 RS218 assessed as inhibition of bacterial growth incubated for 24 hrs by CLSI based broth microdilution method; format: functional
[3] = tested on: Staphylococcus epidermidis; assay: Antibacterial activity against methicillin-resistant Staphylococcus epidermidis assessed as inhibition of bacterial growth incubated for 24 hrs by CLSI based broth microdilution method; format: functional
Haemophilus influenzae [4] = assay: Antibacterial activity against Haemophilus influenzae 2 assessed as inhibition of bacterial growth incubated for 24 hrs by CLSI based broth microdilution method; format: functional
Enterococcus faecium = assay: Antibacterial activity against vancomycin-resistant Enterococcus faecium DAPS assessed as inhibition of bacterial growth incubated for 24 hrs by CLSI based broth microdilution method; format: functional
Acinetobacter baumannii = assay: Antibacterial activity against Acinetobacter baumannii 5075 assessed as inhibition of bacterial growth incubated for 24 hrs by CLSI based broth microdilution method; format: functional
Staphylococcus aureus = assay: Antibacterial activity against Staphylococcus aureus TCH1516 assessed as inhibition of bacterial growth incubated for 24 hrs by CLSI based broth microdilution method; format: functional
A549 = assay: Cytotoxicity against human A549 cells assessed as increase in LDH release at 16 microg/ml incubated for 24 hrs; format: toxicity, cell-based; settings: a549, 24 h, dose 16 µg/ml
Escherichia coli [5] = assay: Antibacterial activity against Escherichia coli LptD4213 assessed as inhibition of bacterial growth incubated for 18 hrs by broth microdilution method; format: functional
Streptococcus = assay: Antibacterial activity against Streptococcus M1T1 assessed as inhibition of bacterial growth incubated for 24 hrs by CLSI based broth microdilution method; format: functional

In the case of `C/C(=C\[C@H]1C=C[C@H]2CC[C@@H](C)[C@@H]2[C@H]1C(=O)c1[nH]c(Cl)c(Cl)c1Cl)C[C@@H](C)C(=O)O`, the MIC (Haemophilus influenzae [1]) is reported as 1 mg/L (≈ 2.18 µM), the MIC (Escherichia coli [2]) is reported as > 32 mg/L and the MIC [3] is reported as 4 mg/L (≈ 8.72 µM). For the same molecule, the MIC (Haemophilus influenzae [4]) was 2 mg/L (≈ 4.36 µM), the MIC (Enterococcus faecium) was 4 mg/L (≈ 8.72 µM) and the MIC (Acinetobacter baumannii) was > 32 mg/L. The MIC (Staphylococcus aureus) was 2 mg/L (≈ 4.36 µM), the Activity (A549) was “Toxic” and the MIC (Escherichia coli [5]) was 4 mg/L (≈ 8.72 µM). For the same molecule, the MIC (Streptococcus) was 4 mg/L (≈ 8.72 µM).

In the case of `C/C(=C\[C@H]1C=C[C@H]2CC[C@@H](C)[C@@H]2[C@H]1C(=O)c1cc(Cl)c(Cl)[nH]1)C[C@@H](C)C(=O)O`, the MIC (Escherichia coli [2]) is reported as > 16 mg/L, the MIC (Enterococcus faecium) is reported as > 16 mg/L and the MIC (Staphylococcus aureus) is reported as > 16 mg/L. The MIC (Streptococcus) was > 16 mg/L.
